Results as given in patent publication US7326721B2 (Hypnion, Inc., priority 2003, dated 2008).
Where two headings read alike, the source gives them in different places.

How the values were obtained:
M2 muscarinic receptor = molecular target: T1, M2 muscarinic receptor (Homo sapiens, UniProt P08172); assay: Muscarinic M2 binding assay; set-up: purchased PerkinElmer, Inc., Wellesley, Mass; host or cells: CHO cells; conditions: for Ki: read-out: Ki M2
T1 sequence (P08172 1-466): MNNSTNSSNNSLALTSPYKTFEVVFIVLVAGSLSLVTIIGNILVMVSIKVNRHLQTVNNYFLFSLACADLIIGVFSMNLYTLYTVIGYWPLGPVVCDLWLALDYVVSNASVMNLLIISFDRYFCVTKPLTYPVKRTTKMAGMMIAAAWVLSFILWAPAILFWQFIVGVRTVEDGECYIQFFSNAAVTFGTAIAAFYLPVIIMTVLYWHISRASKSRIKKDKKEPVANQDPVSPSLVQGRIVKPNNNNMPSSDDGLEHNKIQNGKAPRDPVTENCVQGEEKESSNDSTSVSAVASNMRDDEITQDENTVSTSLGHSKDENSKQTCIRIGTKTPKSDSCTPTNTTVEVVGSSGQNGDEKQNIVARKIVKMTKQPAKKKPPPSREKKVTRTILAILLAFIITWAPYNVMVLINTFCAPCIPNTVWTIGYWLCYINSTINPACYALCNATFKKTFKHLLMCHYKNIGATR

adult male Wistar rats = assay: SCORE-2000 sleep-wakefulness, locomotor activity and body temperature monitoring; type: in vivo, rat
H1 histamine receptor = molecular target: T2, H1 histamine receptor (Bos taurus, UniProt P30546); assay: Histamine H1 competitive binding assay ([3H]pyrilamine); set-up: species or system bovine; conditions: read-out: Ki H1
T2 construct: the receptors were obtained from bovine cerebellar membrane tissue; from tissue; host or cells: bovine cerebellar membranes

M3 muscarinic receptor = M3 muscarinic receptor (Homo sapiens, UniProt P20309); assay: Muscarinic M3 binding assay; set-up: purchased PerkinElmer, Inc., Wellesley, Mass; host or cells: CHO cells; conditions: read-out: Ki M3
M1 muscarinic receptor = molecular target: T3, M1 muscarinic receptor (Homo sapiens, UniProt P11229); assay: Muscarinic M1 binding assay ([3H]-scopolamine, N-methyl chloride); set-up: purchased PerkinElmer, Inc., Wellesley, Mass; host or cells: CHO cells; conditions: read-out: Ki M1
T3 sequence (P11229 1-460): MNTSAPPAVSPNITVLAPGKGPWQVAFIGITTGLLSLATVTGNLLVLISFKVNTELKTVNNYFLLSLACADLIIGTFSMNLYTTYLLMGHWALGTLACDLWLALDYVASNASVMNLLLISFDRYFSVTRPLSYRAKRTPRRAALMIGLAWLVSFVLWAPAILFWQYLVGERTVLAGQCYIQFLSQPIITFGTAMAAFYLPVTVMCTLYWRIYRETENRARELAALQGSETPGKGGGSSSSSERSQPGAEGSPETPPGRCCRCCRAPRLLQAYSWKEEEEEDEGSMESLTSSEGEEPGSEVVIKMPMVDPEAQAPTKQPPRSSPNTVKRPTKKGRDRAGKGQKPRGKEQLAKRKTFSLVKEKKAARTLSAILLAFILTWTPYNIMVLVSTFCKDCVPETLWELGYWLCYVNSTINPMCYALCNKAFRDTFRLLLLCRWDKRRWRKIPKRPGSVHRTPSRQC

hERG = hERG (Homo sapiens, UniProt Q12809)
Chain of hERG (Q12809 whole entry): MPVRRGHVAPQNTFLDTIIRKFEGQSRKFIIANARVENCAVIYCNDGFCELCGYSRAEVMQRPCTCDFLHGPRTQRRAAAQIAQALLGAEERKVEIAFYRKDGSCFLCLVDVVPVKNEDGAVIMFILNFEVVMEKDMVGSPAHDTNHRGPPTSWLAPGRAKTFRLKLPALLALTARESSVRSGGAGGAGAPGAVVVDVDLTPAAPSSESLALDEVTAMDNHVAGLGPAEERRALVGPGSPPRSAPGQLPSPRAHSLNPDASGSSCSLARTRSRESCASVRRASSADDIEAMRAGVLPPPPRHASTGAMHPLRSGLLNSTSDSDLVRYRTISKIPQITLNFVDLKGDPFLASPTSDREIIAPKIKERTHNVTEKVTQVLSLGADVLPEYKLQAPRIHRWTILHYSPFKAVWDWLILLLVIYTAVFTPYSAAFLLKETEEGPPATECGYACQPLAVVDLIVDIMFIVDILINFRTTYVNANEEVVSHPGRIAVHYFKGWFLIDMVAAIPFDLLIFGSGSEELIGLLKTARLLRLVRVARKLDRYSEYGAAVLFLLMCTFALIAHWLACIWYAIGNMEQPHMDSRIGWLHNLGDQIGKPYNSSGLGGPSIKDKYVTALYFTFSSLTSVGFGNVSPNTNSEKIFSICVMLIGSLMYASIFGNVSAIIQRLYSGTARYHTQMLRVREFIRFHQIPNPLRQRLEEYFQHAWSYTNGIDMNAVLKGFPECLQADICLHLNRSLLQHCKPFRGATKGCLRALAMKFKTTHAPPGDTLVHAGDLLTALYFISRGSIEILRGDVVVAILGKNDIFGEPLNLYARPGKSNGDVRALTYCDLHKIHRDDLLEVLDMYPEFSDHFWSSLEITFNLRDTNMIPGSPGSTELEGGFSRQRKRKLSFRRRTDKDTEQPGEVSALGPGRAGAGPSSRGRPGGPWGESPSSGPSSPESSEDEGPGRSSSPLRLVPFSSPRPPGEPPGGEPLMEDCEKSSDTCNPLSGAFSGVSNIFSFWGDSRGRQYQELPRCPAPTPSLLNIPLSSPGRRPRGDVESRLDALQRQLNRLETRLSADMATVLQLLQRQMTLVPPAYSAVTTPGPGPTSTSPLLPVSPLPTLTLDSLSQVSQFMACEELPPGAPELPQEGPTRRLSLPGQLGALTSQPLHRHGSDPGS

Chain of M3 muscarinic receptor (P20309 whole entry): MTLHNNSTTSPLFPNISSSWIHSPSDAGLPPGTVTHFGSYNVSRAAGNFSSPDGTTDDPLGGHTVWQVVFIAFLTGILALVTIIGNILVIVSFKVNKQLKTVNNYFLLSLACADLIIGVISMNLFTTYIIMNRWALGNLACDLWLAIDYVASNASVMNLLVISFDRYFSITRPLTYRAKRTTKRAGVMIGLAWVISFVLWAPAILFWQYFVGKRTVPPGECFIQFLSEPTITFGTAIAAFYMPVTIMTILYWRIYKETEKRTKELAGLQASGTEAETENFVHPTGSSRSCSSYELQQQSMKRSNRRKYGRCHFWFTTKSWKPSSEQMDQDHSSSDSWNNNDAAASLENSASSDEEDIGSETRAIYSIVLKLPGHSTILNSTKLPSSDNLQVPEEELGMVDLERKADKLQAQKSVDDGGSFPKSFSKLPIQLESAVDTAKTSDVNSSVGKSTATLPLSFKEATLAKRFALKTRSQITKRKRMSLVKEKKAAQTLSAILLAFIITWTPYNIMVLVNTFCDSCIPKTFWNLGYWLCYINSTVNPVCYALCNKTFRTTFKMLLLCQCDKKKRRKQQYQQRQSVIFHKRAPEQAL
T2 sequence (P30546 whole entry): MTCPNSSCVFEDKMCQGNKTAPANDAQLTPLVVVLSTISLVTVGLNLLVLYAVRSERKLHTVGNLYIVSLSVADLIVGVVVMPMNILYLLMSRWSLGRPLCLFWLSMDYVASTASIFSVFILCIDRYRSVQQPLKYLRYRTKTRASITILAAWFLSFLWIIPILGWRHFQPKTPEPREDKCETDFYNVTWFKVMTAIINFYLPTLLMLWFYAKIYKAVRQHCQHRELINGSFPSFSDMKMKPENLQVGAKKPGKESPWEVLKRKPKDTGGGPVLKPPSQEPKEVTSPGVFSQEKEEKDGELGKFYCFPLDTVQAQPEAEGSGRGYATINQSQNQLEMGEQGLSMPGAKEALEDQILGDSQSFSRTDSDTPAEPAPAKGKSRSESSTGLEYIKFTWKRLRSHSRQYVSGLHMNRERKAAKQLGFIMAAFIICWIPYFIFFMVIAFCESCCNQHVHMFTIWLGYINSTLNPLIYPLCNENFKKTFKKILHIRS

SMILES | LUSB (adult male Wistar rats; dose 3 mg/kg oral at CT-18) [min] | NREM (adult male Wistar rats; dose 3 mg/kg oral at CT-18) [min] | LUSB (adult male Wistar rats; dose 10 mg/kg oral at CT-18) [min] | NREM (adult male Wistar rats; dose 10 mg/kg oral at CT-18) [min] | LUSB (adult male Wistar rats; dose 30 mg/kg oral at CT-18) [min] | NREM (adult male Wistar rats; dose 30 mg/kg oral at CT-18) [min] | other results
C[N+]1(C)C2CC(OC(=O)C(CO)c3ccccc3)CC1C1OC12.[Br-] (single isomer, unassigned; (-)) [(−)-scopolamine, MeBr, (−)-scopolamine, methyl-, bromide, reference compound] | – | – | – | – | – | – | Slope (M2 muscarinic receptor; M2 binding curve (Table 17)): −0.89
COc1ccc2c(c1)COc1ccc(OC)cc1C2=C1CCN(CC(C)(C)C(=O)O)CC1 [Compound 10a] | 1.6 | -8.9 | 4 | 15.1 | 6.8 | 30.9 | LUSB (adult male Wistar rats; dose 1 mg/kg oral at CT-18): 3.1 min; NREM (adult male Wistar rats; dose 1 mg/kg oral at CT-18): -5 min
COc1ccc2c(c1)C(=C1CCN(CC(C)(C)C(=O)O)CC1)c1ccc(F)cc1CO2 [Compound 46a] | 5 | 12.1 | 8.2 | 36 | – | – | Ki (H1 histamine receptor): 0.134 µM; Ki (M3 muscarinic receptor): > 10 µM; Ki (M1 muscarinic receptor): > 10 µM; Ki (M2 muscarinic receptor): 2.45 µM
COc1ccc2c(c1)COc1ccc(F)cc1C2=C1CCN(CC(C)(C)C(=O)O)CC1 [Compound 47a] | 5.5 | 32.3 | 16.7 | 41.1 | 10 | 56.9 | Ki (H1 histamine receptor): 0.111 µM; Ki (M3 muscarinic receptor): > 10 µM; LUSB (adult male Wistar rats; dose 1 mg/kg oral at CT-18): 2.9 min; NREM (adult male Wistar rats; dose 1 mg/kg oral at CT-18): 5.5 min; Ki (M1 muscarinic receptor): > 10 µM; hERG at micromolar (% blocking of the hERG channel) (hERG; human, 10 µM, pH 7.4): 1% @ 10; Ki (M2 muscarinic receptor): > 10 µM
CC(C)(CN1CCC(=C2c3ccc(F)cc3COc3ccc(F)cc32)CC1)C(=O)O [Compound 48a] | 11.2 | 50.8 | 10 | 58.6 | 4.4 | 39.4 | LUSB (adult male Wistar rats; dose 1 mg/kg oral at CT-18): 6.9 min; NREM (adult male Wistar rats; dose 1 mg/kg oral at CT-18): 36.7 min
O=C(O)C1(CN2CCC(=C3c4ccc(F)cc4COc4ccccc43)CC2)CC1 [Compound 49b] | 10.4 | 22.5 | 13.1 | 47.3 | 15.9 | 43.2 | Ki (H1 histamine receptor): 0.0614 µM; Ki (M3 muscarinic receptor): > 10 µM; Ki (M1 muscarinic receptor): > 10 µM; hERG at micromolar (% blocking of the hERG channel) (hERG; human, 10 µM, pH 7.4): 3.1% @ 10; Ki (M2 muscarinic receptor): > 10 µM
CCC(CC)(CN1CCC(=C2c3ccc(F)cc3COc3ccccc32)CC1)C(=O)O [Compound 49c] | – | – | – | – | – | – | Ki (H1 histamine receptor): 0.0299 µM; Ki (M3 muscarinic receptor): > 10 µM; Ki (M1 muscarinic receptor): > 10 µM; hERG at micromolar (% blocking of the hERG channel) (hERG; human, 10 µM, pH 7.4): 19.7% @ 10; Ki (M2 muscarinic receptor): > 10 µM
COc1ccc2c(c1)C(=C1CCN(CC(C)(C)C(=O)O)CC1)c1ccccc1CO2 [Compound 52a] | 8.2 | 13.6 | 5.7 | 26.8 | 10.1 | 37.2 | –
COc1ccc2c(c1)C(=C1CCN(CC3(C(=O)O)CC3)CC1)c1ccccc1CO2 [Compound 52b] | – | – | 2.9 | 7.5 | 7.1 | 26.8 | –
CC(C)(CN1CCC(=C2c3ccccc3COc3ccc(F)cc32)CC1)C(=O)O [Compound 53a] | 17.2 | 38.6 | 14.4 | 51.5 | 11.9 | 66.3 | LUSB (adult male Wistar rats; dose 1 mg/kg oral at CT-18): 5 min; NREM (adult male Wistar rats; dose 1 mg/kg oral at CT-18): 14.6 min
CC(C)(CN1CCC(=C2c3ccc(C(F)(F)F)cc3COc3ccccc32)CC1)C(=O)O [Compound 54a] | – | – | – | – | 6.1 | 28.6 | –
CC(C)(CN1CCC(=C2c3ccccc3COc3ccc(O)cc32)CC1)C(=O)O [Compound 55a] | – | – | – | – | 2 | 12.8 | –
O=C(O)C1(CN2CCC(=C3c4ccccc4COc4ccc(O)cc43)CC2)CC1 [Compound 55b] | – | – | 2.5 | 7.7 | – | – | –
CC(C)(CN1CCC(=C2c3ccc(O)cc3COc3ccccc32)CC1)C(=O)O [Compound 56a] | – | – | – | – | 4.3 | 6.4 | –
O=C(O)C1(CN2CCC(=C3c4ccc(O)cc4COc4ccccc43)CC2)CC1 [Compound 56b] | – | – | – | – | -2.9 | -9.9 | –
Cc1ccc2c(c1)COc1ccccc1C2=C1CCN(CC(C)(C)C(=O)O)CC1 [Compound 57a] | – | – | – | – | -5.3 | -11 | –

SMILES | LUSB (adult male Wistar rats; dose 3 mg/kg oral at CT-18) [min] | NREM (adult male Wistar rats; dose 3 mg/kg oral at CT-18) [min] | LUSB (adult male Wistar rats; dose 10 mg/kg oral at CT-18) [min] | NREM (adult male Wistar rats; dose 10 mg/kg oral at CT-18) [min] | LUSB (adult male Wistar rats; dose 30 mg/kg oral at CT-18) [min] | NREM (adult male Wistar rats; dose 30 mg/kg oral at CT-18) [min] | other results
CC(C)(CN1CCC(=C2c3ccc(F)cc3COc3ccc(O)cc32)CC1)C(=O)O [Compound 58a] | 5.3 | 9.1 | 7.6 | -12.5 | – | – | –
CC(C)(CN1CCC(=C2c3ccc(O)cc3COc3ccc(F)cc32)CC1)C(=O)O [Compound 60a] | – | – | 3.7 | -5.2 | – | – | –
COc1ccc2c(c1)COc1ccccc1C2=C1CCN(CCC2(C(=O)O)CC2)CC1 [Compound 62b] | – | – | – | – | – | – | Ki (H1 histamine receptor): 0.0565 µM; Ki (M3 muscarinic receptor): > 10 µM; Ki (M1 muscarinic receptor): > 10 µM; Ki (M2 muscarinic receptor): > 10 µM
CC(C)(CCN1CCC(=C2c3ccc(O)cc3COc3ccccc32)CC1)C(=O)O [Compound 63a] | – | – | – | – | 4.6 | 9.6 | –
O=C(O)C1(CCN2CCC(=C3c4ccc(O)cc4COc4ccccc43)CC2)CC1 [Compound 63b] | – | – | 2.1 | -4.8 | – | – | –
CC(C)(CCN1CCC(=C2c3ccc(C(F)(F)F)cc3COc3ccccc32)CC1)C(=O)O [Compound 64a] | – | – | – | – | 12.3 | 33.5 | –
CC(C)(CCN1CCC(=C2c3ccccc3COc3ccc(O)cc32)CC1)C(=O)O [Compound 65a] | – | – | 1.5 | 6.2 | – | – | –
O=C(O)C1(CCN2CCC(=C3c4ccccc4COc4ccc(O)cc43)CC2)CC1 [Compound 65b] | – | – | 3.9 | -5.7 | – | – | –
Cc1ccc2c(c1)COc1ccccc1C2=C1CCN(CCC(C)(C)C(=O)O)CC1 [Compound 66a] | – | – | – | – | 8.8 | 27.8 | –
COc1ccc2c(c1)C(=C1CCN(CCC(C)(C)C(=O)O)CC1)c1ccccc1CO2 [Compound 67a] | – | – | – | – | 6.5 | -11.5 | –
COc1ccc2c(c1)C(=C1CCN(CCC3(C(=O)O)CC3)CC1)c1ccccc1CO2 [Compound 67b] | – | – | 4.6 | 12.6 | 10 | 21.1 | Ki (H1 histamine receptor): 0.0625 µM; Ki (M3 muscarinic receptor): > 10 µM; Ki (M1 muscarinic receptor): > 10 µM; Ki (M2 muscarinic receptor): > 10 µM
CC(C)(CCN1CCC(=C2c3ccc(Cl)cc3COc3ccccc32)CC1)C(=O)O [Compound 68a] | 4.3 | 20.9 | 7.8 | 45.9 | 11.9 | 50.8 | hERG at micromolar (% blocking of the hERG channel) (hERG): 25.3% @ 10
CC(C)(CN1CCC(=C2c3ccccc3COc3ccccc32)CC1)C(=O)O [Compound 69a] | 7.1 | 32.2 | 13.1 | 32.8 | 13.5 | 40 | hERG at micromolar (% blocking of the hERG channel) (hERG; human, 1 µM, pH 7.4): 6.1% @ 1
O=C(O)CCN1CCC(=C2c3ccccc3COc3ccccc32)CC1 [Compound 69e] | 5.6 | 21.2 | 9.7 | 28.4 | – | – | LUSB (adult male Wistar rats; dose 20 mg/kg oral at CT-18): 12.3 min; NREM (adult male Wistar rats; dose 20 mg/kg oral at CT-18): 54.6 min; hERG at micromolar (% blocking of the hERG channel) (hERG): −1.4% @ 1
CC(C)(CCCN1CCC(=C2c3ccccc3COc3ccccc32)CC1)C(=O)O [Compound 71a] | – | – | – | – | 3.6 | 8.1 | –
